{"source": "EPA's ToxValDB 9.5 (doi:10.2903/j.efsa.2014.3691)", "key": {"[1]": {"tested_on": "Rattus norvegicus"}, "[2]": {"tested_on": "Anas platyrhynchos", "conditions": "short-term; oral; feed; mortality"}, "[3]": {"tested_on": "Daphnia magna", "conditions": "chronic/long-term; duration: 22 days; reproduction"}, "[4]": {"tested_on": "Typhlodromus pyri", "conditions": "chronic/long-term; duration: 14 days; reproduction"}, "[5]": {"tested_on": "Tagia sp.", "conditions": "acute; duration: 14 days; mortality"}, "[6]": {"tested_on": "Lepomis macrochirus", "conditions": "acute; duration: 96 hours; mortality"}, "[7]": {"tested_on": "Oncorhynchus mykiss"}, "[8]": {"tested_on": "Apis mellifera", "conditions": "acute, duration: 48 hours, mortality"}, "[9]": {"tested_on": "Colinus virginianus"}}, "note": "“And” between values parts separate entries of the source, which are not always exact repeats. Equal entries are not always repeated."}
{"molecule": "CSC(=O)c1cccc2nnsc12", "note": "[Acibenzolar-S-methyl]", "values": [{"measurement": "LD50", "setting": "[1]; acute, oral, mortality", "value": "> 2000", "unit": "mg/kg"}, {"measurement": "LOAEL", "setting": "[1]; reproduction developmental, body weight", "value": 10, "unit": "mg/kg-day"}, {"measurement": "NOAEL", "setting": "[1]; reproduction developmental, oral, diet", "value": 15, "unit": "mg/kg-day"}, {"measurement": "LC50", "setting": "[2]", "value": "> 1540", "unit": "mg/kg-day"}, {"measurement": "NOEC", "setting": "[3]", "value": 44, "unit": "µg/L"}, {"measurement": "LEL", "setting": "[4]", "value": 30, "unit": "g/ha"}, {"measurement": "LC50", "setting": "[5]", "value": "> 500", "unit": "mg/kg"}, {"measurement": "LC50", "setting": "[6]", "value": "2800 µg/L and 1600 µg/L"}, {"measurement": "LC50", "setting": "[7]; acute, duration: 96 hours, mortality", "value": "400 µg/L and 1100 µg/L and 880 µg/L"}, {"measurement": "NOEC", "setting": "[7]; chronic/long-term, duration: 87 days", "value": 26, "unit": "µg/L"}, {"measurement": "LD50", "setting": "[8]; dermal", "value": "> 100", "unit": "µg/piece"}, {"measurement": "LD50", "setting": "[8]; oral, unspecified", "value": 128, "unit": "µg/piece"}, {"measurement": "LD50", "setting": "[9]; acute, oral, mortality", "value": "> 2000", "unit": "mg/kg"}, {"measurement": "NOEC", "setting": "[9]; reproduction developmental, reproduction", "value": 61, "unit": "mg/kg-day"}]}
